According to patent US9144569B2, “Methods of administering an aromatase inhibitor, prostaglandin and GnRH for regulating ovulation in cattle” (UNIVERSITY OF SASKATCHEWAN, priority 2010, dated 2015):
Like-named read-outs stand apart in the source and are kept apart here. Marks after values point to notes of the source that are not given here.

Assays:
[1] = tested on: plasma LH; test: Example II: plasma LH and LH pulsatility during 3-day letrozole regimen; format: in vivo, cattle
Protocol: (§1) Four days after follicular ablation, heifers were given 500 μg of cloprostenol (PGF, Estrumate, Schering-Plough Animal Health, Pointe-Claire, QC, Canada) intramuscularly (im) to induce regression of the CL and to synchronize ovulation. The experiment was performed in two replicates (n=20-27 per replicate) and each heifer was used only once. In replicate 1, heifers were assigned randomly at the time of ovulation (Day 0) to the following groups and given a 3-day regimen of letrozole from Days 1 to 3 (n=5), Days 3 to 5 (n=5), Days 5 to 7 (n=5), or no treatment (control group, n=5). In replicate 2, heifers were similarly assigned to groups and given letrozole from Days 1 to 3, (n=5), Days 3 to 5 (n=4), or Days 5 to 7 (n=4), but untreated control heifers were arranged in three sub-groups to serve as contemporaneous controls for each letrozole-group during intensive blood sampling periods (i.e., control Days 1 to 3, n=4; control Days 3 to 5, n=4; and control Days 5 to 7, n=5). For practical purposes, the total dose of letrozole (250 μg/kg) was calculated on the basis of an average weight of 350 kg for all heifers and administered intravenously in daily divided doses over 3 days (85 μg/kg per day). For intravenous injection, letrozole was prepared in 95% ethanol to a final concentration of 5 mg/ml, resulting in an injection volume of 6 mL/day.
(§2) Blood samples were collected by jugular or coccygeal venipuncture into 10 ml heparinised, vacuum tubes (Vacutainer tubes; Becton Dickinson Vacutainer Systems, Franklin Lakes, N.J., USA). Blood samples were collected daily from pre-treatment ovulation to post-treatment ovulation. In replicate 1, additional samples were collected from letrozole-treated heifers every 12 hours from the beginning of treatment to first wave emergence. In replicate 2, heifers were sampled at 15 minute intervals for the first 8 hours after the second dose of letrozole (i.e., second day of treatment) using an indwelling jugular catheter, as described previously. Blood samples were centrifuged at 1500×g for 20 minutes, and plasma was separated and stored in plastic tubes at −20° C.
Plasma LH concentrations were determined in duplicate using a double-antibody radioimmunoassay (NIDDK-bLH4). The minimum and maximum values along the standard curve were 0.06 and 8 ng/mL, respectively. The intra- and inter-assay coefficients of variation were 7.9% and 2.5%, respectively, for low reference samples (mean, 0.85 ng/mL) and 8.6% and 9.5%, respectively, for high reference samples (mean, 2.5 ng/mL).
Statistical analyses were done using the Statistical Analysis System software package (SAS Learning Edition 9.1, 2006; SAS Institute Inc., Cary, N.C., USA). Time-series hormone data, plasma letrozole concentration, and follicular and luteal diameter profiles were analysed by repeated measures, using the PROC MIXED procedure. The main effects were treatment, time, and their interactions. […] Single point measurements (interwave and interovulatory intervals, interval from ovulation to onset of CL regression, mean and basal LH concentrations, LH pulse amplitude and frequency, and pharmacokinetic parameters for letrozole) were analysed by analysis of variance. […] If significant main effects or interactions (P≦0.05) were detected, Tukey's post-hoc test was used for multiple comparisons.
Due to individual variability in circulating hormone concentrations among heifers, and because our objective was to determine the effect of treatment within individuals, data on LH and FSH concentrations were transformed to a percentage of the mean concentration of the two first data points collected (Days 0 and 1) for each individual heifer before analysis of variance for repeated measures. For the same reasons, estradiol concentrations were transformed to a percentage of the mean concentration of two pre-treatment data points ([…] each individual heifer before statistical analysis. […]

[2] = tested on: plasma estradiol; test: Example II: plasma estradiol during 3-day letrozole regimen; format: in vivo, cattle; settings: 3-day regimen, regardless of stage of follicular development
Protocol: Plasma estradiol concentrations were determined in duplicate by enzyme-linked immunosorbent assay (Cayman Chemical Company, Ann Arbor, Mich., USA). In this competitive ELISA, plasma steroid competes with acetylcholinesterase labelled steroid for the binding site on the polyclonal rabbit anti-steroid antibody. The antiserum to estradiol was reported to cross-react with estradiol-3-glucoronide (14%), estrone (12%), and estriol (0.3%). For all other steroids cross-reactivities were reported as <0.1%. The minimum and maximum values along the standard curve were 6.6 and 4000 pg/well, respectively. The intra- and inter-assay coefficients of variation for reference samples assayed in duplicate were 11.7% and 12.7, respectively.
For the same reasons, estradiol concentrations were transformed to a percentage of the mean concentration of two pre-treatment data points (i.e. for each individual heifer before statistical analysis.

[3] = Example II: plasma letrozole concentration during 3-day regimen (HPLC/MS); format: in vivo, cattle; settings: for plasma letrozole concentration, overall mean: 85 μg/kg/day iv
Protocol: as §1, §2
Plasma concentrations of letrozole were determined from samples collected every 12 hours from pre-treatment to one day after cessation of treatment using high performance liquid chromatographytandem mass spectrometry (HPLC/MS) as described in Chapter 4, Section 4.3.6.

[4] = tested on: heifers; test: Example III: letrozole 1 mg/kg intravenously or intramuscularly in heifers, ovarian ultrasonography; format: in vivo, cattle; settings: for Interwave Interval / Interovulatory Interval: mean±SEM
Protocol: Ovarian cyclicity in heifers was synchronized using transvaginal ultrasound-guided follicular ablation followed by a double dose of PGF 4 days after ablation. The ovaries were examined daily by transrectal ultrasonography to detect ovulation. Three days after ovulation, heifers were assigned randomly to four treatment groups and given letrozole at a dose of 1 mg/kg intravenously (in benzyl alcohol, n=10) or intramuscularly (in benzyl alcohol plus canola oil 1:1 v/v, n=10), or given a placebo intravenously (benzyl alcohol, n=5) or intramuscularly (benzyl alcohol plus canola oil 1:1 v/v, n=5). Ovarian structures were monitored by ultrasonography and blood samples were collected by jugular venipuncture twice daily from pre-treatment to post-treatment ovulations. Comparisons among groups were made by one-way ANOVA for single-point measurements and by ANOVA for repeated measures for time-series data.
Transrectal ultrasonography: daily from PGF treatment to the first ovulation post-treatment.
Endpoints are: Follicular diameter profiles; CL diameter profile; Circulating progesterone concentration; Circulating FSH and LH profiles; Letrozole profile and bioavailability; Circulating estradiol concentration Follicular fluid estradiol concentration).

[5] = cited from earlier work
[6] = treatment period Day 1-3, 15 min samples over 8 hours
[7] = treatment period Day 3-5, 15 min samples over 8 hours
[8] = treatment period Day 5-7, 15 min samples over 8 hours
[9] = 85 μg/kg/day iv for 3 days, all three groups

Structure (SMILES): N#Cc1ccc(C(c2ccc(C#N)cc2)n2cncn2)cc1 [Letrozole, letrozole]
- plasma LH concentrations among groups, daily samples ([1]; 3-day regimen): No significant differences
- plasma LH, percent of the mean of Days 0 and 1 ([1]; AM samples collected during treatment): 93.6±14.85%
- Basal LH [1, 6]: 0.38 ± 0.11 ng/mL
- LH pulse amplitude [1, 6]: 0.46 ± 0.15 ng/mL
- LH pulse frequency [1, 6]: 0.95 pulses/h
- Mean LH ([1]; treatment period Day 1-3, 15 min samples over 8 hours after second dose): 0.52 ± 0.15 ng/mL
- Basal LH [1, 7]: 0.08 ± 0.03 ng/mL
- LH pulse amplitude [1, 7]: 0.40 ± 0.18 ng/mL
- LH pulse frequency [1, 7]: 0.53 pulses/h
- Mean LH [1, 7]: 0.15 ± 0.5 ng/mL
- Basal LH [1, 8]: 0.13 ± 0.02 ng/mL
- LH pulse amplitude [1, 8]: 0.88 ± 0.37 ng/mL
- LH pulse frequency [1, 8]: 0.41 pulses/h
- Mean LH [1, 8]: 0.21 ± 0.04 ng/mL
- plasma estradiol concentrations compared to control heifers [2]: not different
- time after initiation of treatment by which plasma letrozole was elevated [3, 9]: ≤ 12 h
- time by which plasma letrozole declined to approximately half peak values [3, 9]: ≤ 108 h
- time by which plasma letrozole reached peak levels [3, 9]: ≤ 60 h
- plasma letrozole concentration, overall mean ([3]; Days 1 to 3): 68.6 ± 4.79 ng/mL
- plasma letrozole concentration, overall mean ([3]; Days 3 to 5): 43.9 ± 4.75 ng/mL
- plasma letrozole concentration, overall mean ([3]; Days 5 to 7): 55.6 ± 4.75 ng/mL
- mean circulating level of letrozole during the first 96 hours ([3]; 250 μg/kg, 3-day protocol): 60.8 ± 3.36 ng/mL
- concentration at 96 hours ([3]; female, bovine, plasma, intravenous, 85 μg/kg per day, 250 μg/kg divided in a 3-day regimen, read-out: mean concentration of letrozole in the circulation at 96 hours): 51.6 ± 4.33 ng/mL
- Interwave Interval ([4]; 1 mg/kg IM in benzyl alcohol plus canola oil): 11.7 ± 0.34^b Days
- Interwave Interval ([4]; 1 mg/kg IM in benzyl alcohol plus canola oil, listed as letrozole): 11.7 days
- day-to-day diameter profile of the corpus luteum vs IM controls ([4]; 1 mg/kg IM, P<0.05): larger
- Interovulatory Interval ([4]; 1 mg/kg IM): 19.7 ± 0.83 days
- Interwave Interval ([4]; 1 mg/kg IV in benzyl alcohol): 10.6 ± 0.30^a,b Days
- Interwave Interval ([4]; 1 mg/kg IV in benzyl alcohol, listed as letrozole): 10.6 days
- day-to-day diameter profile of the dominant follicle among groups ([4]; 1 mg/kg IV or IM vs placebo, Day 3 after ovulation): not different
- Interovulatory Interval ([4]; 1 mg/kg IV): 18.9 ± 0.70 days
- half-life of letrozole ([5]; in humans [46]): approximately 2 days
- half-life of letrozole ([5]; in women [41, 61]): 48 h
- mean residence time ([5]; in women [41]): 59 h
- volume of distribution ([5]; in women [41]): 1.87 L/kg
